# Assay results from patent US8592394B2, “Synthetic derivatives beta glycolipids and compositions thereof for the treatment of pathologic disorders” (Enzo Therapeutics, Inc., priority 2003, dated 2013).
# Experiments:
# [1] = tested on: ConA induced hepatitis; test: ConA induced hepatitis model: serum AST and ALT (liver injury); assay type: in vivo, mice; conditions: for enzyme levels (serum ALT and AST): Con A
# Description: (§1) The effect of β-glycolipids on liver injury was evaluated by serum aspartyl transaminase (AST) and alanine aminotransferase (ALT) activities, which were determined by a clinical chemistry analyzer, Reflovet Plus (Roche Diagnostics, GmbH, Mannheim, Germany).
# Con A was purchased from MP Biomedicals (Ohio, USA), was dissolved (0.5 mg, 20 mg/kg) in 200 μl of 50 mM Tris pH 7, 150 mM NaCl, 4 mM CaCl2, and was injected intravenously into mice (tail vain). Sera from individual mice were obtained 8 or 20 h after Con A injection. Serum activities of alanine aminotransferase (ALT) and aspartate aminotransferase (AST) were measured by an automatic analyzer.
# To determine the clinical and immunological effect of the novel synthetic compounds of the invention, immune-mediated hepatitis was examined using the ConA induced hepatitis model. Therefore, the different synthetic and natural derivatives of β-glycolipids of Formula II, III and IV [AD2897 (ALIB-97), AD2898, and AD2899, respectively], were examined using seven groups of C57Bl/6 mice, as summarized by Table 1. Mice in experimental groups A-G (eight mice in each group) were injected with ConA. Group A mice were administered with 100 μl intraperitoneal injection of solvent only [15% Cremophor EL/15% ethanol/70% PBS](C:E). Mice in groups B, C, D, E, F, and G were administered with intraperitoneal injection of 1 μg or 10 μg of each of the three analogs Formulated in solvent as described in Experimental Procedures. Animals were sacrificed and examined.
# In order to evaluate the potential beneficial effect of the three novel analogues of the invention on immune-mediated hepatitis, the effect of treatment with two concentrations of the three synthetic analogs on liver damage in all tested groups was assessed by determination of serum aspartate aminotransferase (AST), and alanine aminotransferase (ALT) levels.
# [2] = tested on: IL-6; test: Serum IL-6 by ELISA in ConA induced hepatitis; assay type: in vivo, mice; conditions: intraperitoneal
# Description: (§2) Serum levels of IFN-γ, TGF-β, TNF-α IL-2, IL-4, IL-6, IL-10 and IL-12 were determined by “sandwich” ELISA, using commercial kits (Quantikine, R&D Systems, Minneapolis, Minn., USA). Serum insulin was also determined by “sandwich” ELISA too, using the commercial kit of Mercodia AB (Uppsala, Sweden) according to the manufacturer's instructions.
# [3] = tested on: AKT; test: Western blot of liver extracts of ob/ob mice: AKT activation; assay type: in vivo; conditions: per os daily 4 weeks, 15 μg (group D)
# Description: For analysis of whole tissue lysates, snap-frozen liver pieces were homogenized in 0.75 ml of ice-cold PBS and centrifuged at 4° C. for 5 min in 2000 rpm. Pellets were lysed with 50 mM beta glycerophosphate, 1.5 mM EGTA, PH 7.3, 1 mM EDTA, PH 7.3, 1 mM DTT, 0.1 mM Sodium vanadate, 1% NP-40, and cocktails of protease and phosphatase (Sigma, Rehovot, Israel).
# (§3) Lysates were centrifuged twice at 4° C. for 10 minutes in 14000 rpm. Equivalent amounts of lysates (15 μg/lane), determined by Bradford assay (Bio-Rad, Rehovot, Israel), were separated by sodium dodecyl sulfate polyacrylamide gel electrophoresis (SDS-PAGE) and transferred to nitrocellulose membranes.
# For metabolic syndrome experiments, proteins were detected with JNK-2, Phospho JNK (Thr183/Tyr185), Akt and phospho Akt (Ser 473) antibodies (Cell Signaling Technologies, MA). β-actin (abcam, UK) was used as the loading control.
# (§4) Blots were developed with horseradish peroxidase-conjugated secondary antibodies (Jackson Laboratories Bar Harbor, Me.) and Western Blot-Luminol Reagent (Santa Cruz Biotechnology, CA, USA). Cell counting and western Blot quantification was performed using total Lab (Phoretix, USA) software.
# Therefore, five groups of male C57BL/6 Ob/Ob mice were studied. […]
# [4] = tested on: STAT1; test: Immunoblot of liver lysates: STAT1 phosphorylation; assay type: in vivo, mice; conditions: IP
# Description: (§5) For ConA induced hepatitis experiments spleen and liver lysates were lysed in RIPA buffer containing 50 mM Tris, pH 7.4, 1% NP-40, 150 mM NaCl, 0.1% SDS, 0.5% sodium deoxycholate and protease inhibitors (5 μg/ml, Sigma), with protease and phosphatase (Sigma, Rehovot, Israel).
# as §3
# (§6) For ConA induced hepatitis experiments proteins were detected with phospho-specific STAT1-Tyr701, STAT6-Tyr641, STAT1, and STAT6 antibodies from Cell Signaling. β-actin (abcam, UK) was used as a loading control.
# as §4
# [5] = tested on: ob/ob mice; test: Serum ALT and AST (hepatic injury) in ob/ob mice; assay type: in vivo; conditions: for serum AST: vehicle group A 710
# Description: as §1
# (§7) Therefore, five groups of male C57BL/6 Ob/Ob mice were studied. Mice (6 per group) were fed (per os) daily for 4 weeks with 15 or 45 μg of GC (groups B and C, respectively) and 15 or 45 μg of ALIB-97 (groups D and E, respectively). Control mice (Group A) were administered vehicle only.
# [6] = tested on: TNF-α; test: Serum TNF-α by ELISA in ConA induced hepatitis; assay type: in vivo, mice; conditions: intraperitoneal
# Description: as §2
# [7] = tested on: STAT6; test: Immunoblot of liver lysates: STAT6; assay type: in vivo, mice; conditions: IP
# Description: as §5, §3, §6, §4
# [8] = tested on: mouse splenocytes; test: In vitro stimulation of splenocytes: supernatant IFN-γ by ELISA; assay type: cell-based
# Description: Splenocytes were prepared as described above and plated at 2.0×10^5 cells per well in 96-well plates in RPMI-1640 supplemented with 5% FCS, […] 2-mercaptoethanol, 2 mM glutamine, 1% sodium pyruvate, and antibiotics. Titrated volumes of GC, α-GalCer, and ALIB-97 diluted in DMSO were added at final concentrations of 100 ng, 1 μg, and 10 μg/ml. After 72 h of culture, 1 μCi of [^3H] thymidine (Amersham Biosciences) was added to each well, and the cells were cultured for an additional 16 to 18 h. Cells were harvested with a cell harvester (Tomtec, Orange, Conn.), and the uptake of radioactivity was measured with a β-plate reader. To evaluate IFN-γ secretion in vitro, supernatants were harvested after 90 h of culture with glycolipids and stored until the cytokine levels were measured by ELISA.
# [9] = tested on: ob/ob mice; test: Fasting glucose and glucose tolerance test in ob/ob mice; assay type: in vivo
# Description: Mice underwent a glucose tolerance test (GTT) on day 30 after overnight fasting. Glucose was administered orally (1.25 g per kg). Serum glucose measurements were performed on tail-vein blood every 15 min for 3 h. Glucose levels were measured by a standard glucometer.
# as §7
# [10] = B6 mice, intraperitoneal, Con A hepatitis, p<0.05
# [11] = B6 mice, oral administration, 20 h after Con A injection, vs control p<0.01
# [12] = ConA induced hepatitis, C57Bl/6 mice, intraperitoneal, 10 μg/mice
compound,measurement,setting,value
"CCCCCCCCCCCCCC=CC(O)C(CO[C@@H]1OC(CO)[C@@H](O)C(O)C1O)NC(=S)NC12CC3CC(CC(C3)C1)C2 (stereo in doubt) [ALIB-97, N-adamantyl-N′-glucosylsphingosine thiourea]",reduction of serum ALT levels,[1]; [10],more than 60%
same,reduction of serum AST levels,[1]; [10],more than 60%
same,serum ALT levels,[1]; [11],significantly reduced
same,serum AST levels,[1]; [11],significantly reduced
same,enzyme levels (serum ALT and AST),"[1]; CD1d−/− mice, intraperitoneal",did not significantly alter
same,serum ALT levels,[1]; [12],decreased
same,serum AST levels,[1]; [12],decreased
same,liver damage induced by Con A treatment,[1]; Jα18 KO mice,exacerbated
same,enzyme levels (serum ALT and AST),"[1]; Jα18−/− mice, intraperitoneal",did not significantly alter
same,serum IL-6 levels,[2]; B6 mice,reduced
same,serum IL-6 levels,[2]; Jα18−/− mice,reduced
same,AKT activation,[3],decreased
same,STAT1 phosphorylation of Tyr 701 in the liver,[4]; B6 mice,increased
same,STAT1 phosphorylation of Tyr 701 in the liver,[4]; CD1d−/− mice,increased
same,serum AST,"[5]; day 30, 15 μg per os daily",289 u/L
same,serum ALT,"[5]; day 30, 45 μg per os daily, vehicle group A 370, p<0.05",165 u/L
same,serum AST,"[5]; day 30, 45 μg per os daily",124 u/L
same,serum TNF-α secretion,[6]; B6 mice,modest effect
same,serum TNF-α levels,[6]; CD1d−/− KO mice,decreased
same,serum TNF-α levels,[6]; Jα18−/− KO mice,decreased
same,STAT6 expression in the liver,[7]; B6 mice,slightly increased
same,STAT6 expression in the liver,[7]; CD1d−/− mice,markedly induced
same,IFN-γ secretion,[8]; CD1d−/− splenocytes,absence
same,IFN-γ secretion,[8]; Jα18−/− splenocytes,absence
same,activation of IFN-γ secretion,"[8]; mouse (B6) splenocytes, 100 ng",more than 9 fold
same,"time at which the decrease in glucose levels (GTT, relative to time 0) reached statistical significance","[9]; day 30, 15 μg per os daily",90 min
same,"time at which the decrease in glucose levels (GTT, relative to time 0) reached statistical significance","[9]; day 30, 45 μg per os daily",60 min
